Reference: ChEMBL document CHEMBL1781914, “Syntheses and initial evaluation of a series of indolo-fused heterocyclic inhibitors of the polymerase enzyme (NS5B) of the hepatitis C virus” (Bioorg Med Chem Lett, 2011)

Key:
[1] = Drug clearance in rat at 2 mg/kg, iv; type: ADME, organism-based; parameters: dose 2 mg/kg, route intravenous; details: in vivo
[2] = test system: Hepatitis C virus; assay: Antiviral activity against HCV infected in human Huh7 cells assessed as inhibition of viral replication by luciferase assay; type: functional, organism-based, Hepacivirus hominis; details: Huh-7
[3] = Oral bioavailability in rat; type: ADME, organism-based; details: in vivo
[4] = AUC in iv and po dosed rat; type: ADME, organism-based; details: plasma
[5] = test system: Hepatitis C virus; assay: Inhibition of HCV genotype 1b NS5B polymerase expressed in Escherichia coli BL21(DE3) after 60 mins by FRET assay; parameters: species or system Hepatitis C virus subtype 1b; details: BL21-DE3, 1 h

| SMILES | clearance [1] | EC50 [2] | bioavailability [3] | AUC [4] | IC50 [5] |
| --- | --- | --- | --- | --- | --- |
| O=C(O)/C=C/c1ccc(OC(=O)C2(NC(=O)c3ccc4c(C5CCCCC5)c5n(c4c3)CCCc3ccccc3-5)CCCC2)cc1 | 250 mL/min/kg | 20 nM | 8% | 0.28 µM·h | 30 nM |
| O=C(O)/C=C/c1ccc(OC(=O)C2(NC(=O)c3ccc4c(C5CCCCC5)c5n(c4c3)CC(=O)Nc3ccccc3-5)CCCC2)cc1 | 13 mL/min/kg | 10 nM | 3% | 0.66 µM·h | 20 nM |
| O=C(O)c1ccc2c(C3CCCCC3)c3n(c2c1)CCCc1ccccc1-3 | – | 700 nM | – | – | 840 nM |
| O=C1Cn2c(c(C3CCCCC3)c3ccc(C(=O)O)cc32)-c2ccccc2N1 | – | 240 nM | 17.6% | – | 70 nM |
| O=C(O)c1ccc2c(C3CCCCC3)c3n(c2c1)CCOc1ccccc1-3 | – | 590 nM | – | – | 690 nM |

Continued by falling EC50 [2], values first:

| clearance [1] | EC50 [2] | bioavailability [3] | AUC [4] | IC50 [5] | SMILES |
| --- | --- | --- | --- | --- | --- |
| – | 270 nM | – | – | 600 nM | O=C(O)c1ccc2c(C3CCCCC3)c3n(c2c1)CCCCNc1ccccc1-3 |
| 8.7 mL/min/kg | 20 nM | 12.3% | 3.61 µM·h | 90 nM | O=C(O)/C=C/c1ccc(OC(=O)C2(NC(=O)c3ccc4c(C5CCCCC5)c5n(c4c3)CCCCNc3ccccc3-5)CCCC2)cc1 |
| 17 mL/min/kg | 10 nM | 5% | 0.79 µM·h | 30 nM | O=C(O)/C=C/c1ccc(OC(=O)C2(NC(=O)c3ccc4c(C5CCCCC5)c5n(c4c3)CCOc3ccccc3-5)CCCC2)cc1 |
